From the NIST ThermoML archive (doi:10.1016/j.jct.2003.09.011) come the findings set out here.

The structures appear in SMILES notation. Numbers after ± are expanded uncertainties.

A short description of this data set: activity coefficient (dimensionless); of the first substance listed, at infinite dilution; xn = mol fraction of the nth substance listed. The note with it: Liquid, Chromatography, x1 = 0.

For `C#CCCCCC` [1-heptyne] + O=Cc1ccco1, the activity coefficient (278.15 K) worked out at 20 ± 1.7 and the activity coefficient (298.15 K) stood at 17.9 ± 1.5.
Turning to `C#CCCCC` [1-hexyne] + O=Cc1ccco1, the activity coefficient reads like this: (278.15 K) 6.27 ± 0.54; (298.15 K) 5.09 ± 0.44.
Taken in the same sequence, the figures for `c1ccccc1` [benzene] + O=Cc1ccco1 were 2.55 ± 0.22 and 2.45 ± 0.21.
Taken in the same sequence, the figures for `C1CCCCCC1` [cycloheptane] + O=Cc1ccco1 were 18.6 ± 1.6 and 15.5 ± 1.3.
On to `C1CCCCC1` [cyclohexane] + O=Cc1ccco1, for which the activity coefficient reads like this: (278.15 K) 16.8 ± 1.5; (298.15 K) 13.6 ± 1.2.
Taken in the same sequence, the figures for `C1CCCC1` [cyclopentane] + O=Cc1ccco1 were 14.2 ± 1.2 and 13.3 ± 1.2.
As for `CCCCCCC` [heptane] + O=Cc1ccco1, the activity coefficient came to 38.1 ± 3.3 (278.15 K) and 33.4 ± 2.9 (298.15 K).
Taken in the same sequence, the figures for `C=CCCCC` [hex-1-ene] + O=Cc1ccco1 were 15.2 ± 1.3 and 15 ± 1.3.
On to `CCCCCC` [hexane] + O=Cc1ccco1, for which the activity coefficient (278.15 K) was found to be 31.9 ± 2.8 and the activity coefficient (298.15 K) amounted to 27.8 ± 2.4.
Taken in the same sequence, the figures for `CCCCC` [pentane] + O=Cc1ccco1 were 24.3 ± 2.1 and 21.6 ± 1.9.
